Data: patent US8343990B2, “Substituted cyclopropyl compounds, compositions containing such compounds and methods of treatment” (Merck Sharp & Dohme Corp., priority 2008, dated 2013)

The molecules below were run against T1, GPR119 receptor (UniProt Q8TDV5, S309L, species not given) (assay: GPR119 signaling, cyclic AMP (cAMP) homogenous time resolved fluorescence (HTRF) assay). Conditions: CHO cells with Gα15 and murine GPR119, or HEK293 Flp-In cells with human GPR119 S309L; table does not say which; read-out: Activity: inflection points, denoted as EC50 values (agonist activation of GPR119, cAMP).
T1 sequence (Q8TDV5 1-335 S309L): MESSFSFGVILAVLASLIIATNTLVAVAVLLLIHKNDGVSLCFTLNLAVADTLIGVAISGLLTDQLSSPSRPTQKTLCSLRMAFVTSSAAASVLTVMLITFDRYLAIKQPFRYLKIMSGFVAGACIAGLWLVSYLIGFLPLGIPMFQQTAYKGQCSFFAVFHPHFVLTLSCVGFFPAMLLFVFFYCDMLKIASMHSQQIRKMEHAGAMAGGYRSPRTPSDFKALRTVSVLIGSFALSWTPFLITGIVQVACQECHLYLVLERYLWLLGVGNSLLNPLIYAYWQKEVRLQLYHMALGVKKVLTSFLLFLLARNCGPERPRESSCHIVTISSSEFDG
Format: cell-based
Text: Measurement of GPR119 Signaling Using a Cyclic AMP (cAMP) Homogenous Time Resolved Fluorescence (HTRF) Assay
Chinese hamster ovary (CHO) cell lines stably transfected with the permissive guanine nucleotide binding protein alpha 15 (Gα15) and […] GPR119 were maintained in DMEM media containing FBS, penicillin-streptomycin, puromycin, and G418 (geneticin). Alternatively, human embryonic kidney (HEK)293 Flp-In cells (Invitrogen, Carlsbad, Calif.) were stably transfected with a human SNP variant (S309L) of GPR119 and maintained in DMEM media containing FBS, penicillin-streptomycin, and hygromycin. Agonist activation of the GPR119 receptor was measured in receptor transfected cells described above, treated with compounds of this invention, using a commercial homogenous time resolved fluorescence (HTRF) kit for measurement of cAMP (CisBio, Bedford, Mass.). The assay was performed in 96-well half-volume plates (murine) or 384-well plates (human) following the manufacturers instructions. Briefly, suspended cells were incubated with a dose titration of test compound at room temperature for 60 min, lysed, and incubated with HTRF reagents for an additional 60 min. The plate was read using an Envision multilabel reader (Perkin Elmer) adjusted to read time resolved fluorescence and the cAMP concentrations were extrapolated from a cAMP calibration curve. […] The concentration of test compound required to stimulate a half-maximal response (EC50), and efficacy as compared to an internal agonist control, was determined from a sigmoidal 4-parameter curve fit of the resulting plot of normalized activity versus compound concentration.

Compound	EC50 [µM]
CC(=O)c1ccc(OCC[C@@H]2C[C@@H]2C2CCN(c3ncc(Cl)cn3)CC2)cc1 (racemic) [Ex 35, Rac-cis-1-[4-(2-{2 [1-(5-chloropyrimidin-2-yl)piperidin-4-yl]cyclopropyl}ethoxy)phenyl]ethanone]	0.05 to 0.2
Cc1nnc(-c2ccc(OCCC3CC3C3CCN(c4ncc(F)cn4)CC3)cc2F)o1 (single isomer, unassigned) [Ex 83eS, cis-5-fluoro-2-[4-(2-{2-[3-fluoro-4-(5-methyl-1,3,4-oxadiazol-2-yl)phenoxy]ethyl}cyclopropyl)piperidin-1-yl]pyrimidine]	< 0.01
Clc1cnc(N2CCC([C@H]3C[C@@H]3CCOc3ccc(-n4cncn4)cc3)CC2)nc1 [Ex 95, 5-chloro-2-[4-((1R,2R)-2-{2-[4-(1H-1,2,4-triazol-1-yl)phenoxy]ethyl}cyclopropyl)piperidin-1-yl]pyrimidine]	0.01 to 0.05
Clc1cnc(N2CCC(C3CC3CCOc3ccc(-c4cnoc4)cc3)CC2)nc1 (racemic) [Ex 20, rac cis-5-chloro-2-(4-{2-[2-(4-isoxazol-4-ylphenoxy)ethyl]cyclopropyl)piperidin-1-yl)pyrimidine]	0.05 to 0.2
Cc1nnc(-c2ccc(OCCC3CC3C3CCN(c4ncc(F)cn4)CC3)cc2F)o1 (single isomer, unassigned) [Ex 83eF, cis-5-fluoro-2-[4-(2-{2-[3-fluoro-4-(5-methyl-1,3,4-oxadiazol-2-yl)phenoxy]ethyl}cyclopropyl)piperidin-1-yl]pyrimidine]	0.05 to 0.2
CS(=O)(=O)c1cccc(OCCC2CC2C2CCN(c3ncc(Cl)cn3)CC2)c1 (racemic) [Ex 7, rac cis-5-chloro-2-[4-(2-{2-[3-(methylsulfonyl)phenoxy]ethyl}cyclopropyl)piperidin-1-yl]pyrimidine]	< 0.01
NS(=O)(=O)c1ccc(OC[C@H]2C[C@@H]2CC2CCN(c3ncc(Cl)cn3)CC2)cc1 [Ex 112, 4-[((1S,2S)-2-{[1-(5-chloropyrimidin-2-yl)piperidin-4-yl]methyl}cyclopropyl)methoxy]benzenesulfonamide]	0.05 to 0.2
Cc1cc(OC[C@@H]2C[C@H]2CC2CCN(c3ncc(Cl)cn3)CC2)nc(C#N)n1 (racemic) [Ex 114, rac-trans-4-[(2-{[1-(5-chloropyrimidin-2-yl)piperidin-4-yl]methyl}cyclopropyl)methoxy]-6-methylpyrimidine-2-carbonitrile]	0.05 to 0.2
Clc1cnc(N2CCC([C@@H]3C[C@@H]3CCOc3ccncc3)CC2)nc1 (racemic) [Ex 55, Rac-cis-5-chloro-2-(4-{2-[2-(pyridin-4-yloxy)ethyl]cyclopropyl}piperidin-1-yl)pyrimidine]	0.01 to 0.05
N#Cc1ccc(OC[C@@H]2C[C@H]2CC2CCN(c3ncc(Cl)cn3)CC2)cc1F (racemic) [Ex 104, Rac-trans-4-[(2-{[1-(5-chloropyrimidin-2-yl)piperidin-4-yl]methyl}cyclopropyl)methoxy]-2-fluorobenzonitrile]	0.05 to 0.2
Cc1nc(C#N)cc(OCC[C@@H]2C[C@@H]2C2CCN(c3ccc(C(F)(F)F)cn3)CC2)n1 (racemic) [Ex 47, Rac-cis-2-methyl-6-[2-(2-{1-[5-(trifluoromethyl)pyridin-2-yl]piperidin-4-yl}cyclopropyl)ethoxy]pyrimidine-4-carbonitrile]	< 0.01
O=C(NC1CC1)c1ccc(OC[C@@H]2C[C@H]2CC2CCN(c3ncc(Cl)cn3)CC2)cc1F [Ex 107, 4-[((1R,2R)-2-{[1-(5-chloropyrimidin-2-yl)piperidin-4-yl]methyl}cyclopropyl)methoxy]-N-cyclopropyl-2-fluorobenzamide]	0.01 to 0.05
Cc1cnc(N2CCC([C@@H]3C[C@@H]3CCOc3ccc(-c4nnc(C)o4)c(F)c3)CC2)nc1 (racemic) [Ex 84, rac-cis-2-[4-(2-{2-[3-fluoro-4-(5-methyl-1,3,4-oxadiazol-2-yl)phenoxy]ethyl}cyclopropyl)piperidin-1-yl]-5-methylpyrimidine]	< 0.01
Cc1nnc(-c2ccc(OCC[C@H]3C[C@H]3C3CCN(c4ncc(F)cn4)CC3)cc2F)o1 (racemic) [Ex 86, Rac-cis-5-fluoro-2-[4-(2-{2-[3-fluoro-4-(5-methyl-1,3,4-oxadiazol-2-yl)phenoxy]ethyl}cyclopropyl)piperidin-1-yl]pyrimidine]	< 0.01
Cc1nc(C#N)cc(OCC[C@@H]2C[C@@H]2C2CCN(c3ncc(F)c(C)n3)CC2)n1 (racemic) [Ex 46, Rac-cis-6-(2-{2-[1-(5-fluoro-4-methylpyrimidin-2-yl)piperidin-4-yl]cyclopropyl}ethoxy)-2-methylpyrimidine-4-carbonitrile]	< 0.01
Clc1cnc(N2CCC(C3CC3CCOc3ccc(-n4cnnn4)cc3)CC2)nc1 (racemic) [Ex 30, rac cis-5-chloro-2-[4-(2-{2-[4-(1H-tetrazol-1-yl)phenoxy]ethyl}cyclopropyl)piperidin-1-yl]pyrimidine]	< 0.01
Clc1cnc(N2CCC(C3CC3CCOc3cccc(-c4nnco4)c3)CC2)nc1 (racemic) [Ex 10, rac cis-5-chloro-2-[4-(2-{2-[3-(1,3,4-oxadiazol-2-yl)phenoxy]ethyl}cyclopropyl)piperidin-1-yl]pyrimidine]	> 0.2
Cc1nnc(-c2ccc(OCCC3CC3C3CCN(c4ncc(Cl)cn4)CC3)cc2)o1 (racemic) [Ex 16, rac cis-5-chloro-2-[4-(2-{2-[4-(5-methyl-1,3.4-oxadiazol-2-yl)phenoxy]ethyl}cyclopropyl)piperidin-1-yl]pyrimidine]	< 0.01
Cc1nnc(-c2ccc(OC[C@@H]3C[C@H]3CC3CCN(c4ncc(Cl)cn4)CC3)cc2F)o1 [Ex 109, 5-chloro-2-{4-[((1R,2R)-2-{[3-fluoro-4-(5-methyl-1,3,4-oxadiazol-2-yl)phenoxy]methyl}cyclopropyl)methyl]piperidin-1-yl}pyrimidine]	0.05 to 0.2
Clc1cnc(N2CCC(C3CC3CCOc3ccc(-n4cnnn4)cc3)CC2)nc1 (single isomer, unassigned) [Ex 83cS, cis-5-chloro-2-[4-(2-{2-[4-(1H-tetrazol-1-yl)phenoxy]ethyl}cyclopropyl)piperidin-1-yl]pyrimidine]	< 0.01
CS(=O)(=O)c1ccc(OC[C@@H]2C[C@H]2CC2CCN(c3ncc(Cl)cn3)CC2)cc1 (racemic) [Ex 101, rac-trans-5-chloro-2-{4-[(2-{[4-(methylsulfonyl)phenoxy]methyl}cyclopropyl)methyl]piperidin-1-yl}pyrimidine]	0.05 to 0.2
N#Cc1ccc(OCCC2CC2C2CCN(c3ncc(Cl)cn3)CC2)cc1F (racemic) [Ex 12, rac cis-4-(2-{2-[1-(5-chloropyrimidin-2-yl)piperidin-4-yl)cyclopropyl}ethoxy)-2-fluorobenzonitrile]	0.01 to 0.05
Clc1cnc(N2CCC(C3CC3CCOc3ccc(-c4ccno4)cc3)CC2)nc1 (racemic) [Ex 21, rac cis-5-chloro-2-(4-{2-[2-(4-isoxazol-5-ylphenoxy)ethyl]cyclopropyl}piperidin-1-yl)pyrimidine]	0.01 to 0.05
Clc1cnc(N2CCC(C3CC3CCOc3ccc(-c4nnco4)cc3)CC2)nc1 (racemic) [Ex 15, rac cis-5-chloro-2-[4-(2-{2-[4-(1,3,4-oxadiazol-2-yl)phenoxy]ethyl}cyclopropyl)piperidin-1-yl]pyrimidine]	0.01 to 0.05
Cc1nnc(-c2ccc(OCCC3CC3C3CCN(c4ncc(Cl)cn4)CC3)cc2F)o1 (racemic) [Ex 32, rac cis-5-chloro-2-[4-(2-{2-[3-fluoro-4-(5-methyl-1,3,4-oxadiazol-2-yl)phenoxy]ethyl}cyclopropyl)piperidin-1-yl]pyrimidine]	< 0.01
CS(=O)(=O)c1ccc(OCC[C@H]2C[C@@H]2C2CCN(c3ncc(Cl)cn3)CC2)cc1 [Ex 91, 5-chloro-2-[4-((1R,2R)-2-{2-[4-(methylsulfonyl)phenoxy]ethyl}cyclopropyl)piperidin-1-yl]pyrimidine]	0.01 to 0.05
O=C(NC1CC1)c1ccc(OC[C@@H]2C[C@@H]2CC2CCN(c3ncc(Cl)cn3)CC2)cc1F (racemic) [Ex 117, rac-cis 4-[(2-{[1-(5-chloropyrimidin-2-yl)piperidin-4-yl]methyl}cyclopropyl)methoxy]-N-cyclopropyl-2-fluorobenzamide]	0.01 to 0.05
Fc1cc(OCC[C@H]2C[C@@H]2C2CCN(c3ncc(Cl)cn3)CC2)ccc1-c1nnc(C2CC2)o1 [Ex 97, 5-chloro-2-[4-((1R,2R)-2-{2-[4-(5-cyclopropyl-1,3,4-oxadiazol-2-yl)-3-fluorophenoxy]ethyl}cyclopropyl)piperidin-1-yl]pyrimidine]	0.01 to 0.05
